In US7851474B2, “Dipiperazinyl ketones and related analogues” (Neurogen Corporation, priority 2005, dated 2010):

target: T1, chimeric human H3 receptor (Homo sapiens, UniProt Q9Y5N1, E19D); experiment: Chimeric human H3 receptor GTP binding assay (agonist-stimulated GTP-gamma35S binding, Example 7); format: biochemical; details: assay of Example 7; "*" in Ki of Table II; read-out: Ki
T1 construct: made in house; host or cells: Sf9 insect cells (baculovirus infection); P2 membrane preparation
Summary of the method: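 Sf9 membranes co-expressing the chimeric receptor and heterotrimeric G-protein subunits, 35 μg protein per tube, in pH 7.4 Tris buffer with 10 μM GDP. Test compounds at 10^−10 to 10^−6 M with 1 μM histamine, 60 min at room temperature. Filter-bound GTP-gamma^35S read by scintillation; IC50 from non-linear regression of dose-response curves.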

T1 sequence (Q9Y5N1 with tags, fused parts or gaps E19D): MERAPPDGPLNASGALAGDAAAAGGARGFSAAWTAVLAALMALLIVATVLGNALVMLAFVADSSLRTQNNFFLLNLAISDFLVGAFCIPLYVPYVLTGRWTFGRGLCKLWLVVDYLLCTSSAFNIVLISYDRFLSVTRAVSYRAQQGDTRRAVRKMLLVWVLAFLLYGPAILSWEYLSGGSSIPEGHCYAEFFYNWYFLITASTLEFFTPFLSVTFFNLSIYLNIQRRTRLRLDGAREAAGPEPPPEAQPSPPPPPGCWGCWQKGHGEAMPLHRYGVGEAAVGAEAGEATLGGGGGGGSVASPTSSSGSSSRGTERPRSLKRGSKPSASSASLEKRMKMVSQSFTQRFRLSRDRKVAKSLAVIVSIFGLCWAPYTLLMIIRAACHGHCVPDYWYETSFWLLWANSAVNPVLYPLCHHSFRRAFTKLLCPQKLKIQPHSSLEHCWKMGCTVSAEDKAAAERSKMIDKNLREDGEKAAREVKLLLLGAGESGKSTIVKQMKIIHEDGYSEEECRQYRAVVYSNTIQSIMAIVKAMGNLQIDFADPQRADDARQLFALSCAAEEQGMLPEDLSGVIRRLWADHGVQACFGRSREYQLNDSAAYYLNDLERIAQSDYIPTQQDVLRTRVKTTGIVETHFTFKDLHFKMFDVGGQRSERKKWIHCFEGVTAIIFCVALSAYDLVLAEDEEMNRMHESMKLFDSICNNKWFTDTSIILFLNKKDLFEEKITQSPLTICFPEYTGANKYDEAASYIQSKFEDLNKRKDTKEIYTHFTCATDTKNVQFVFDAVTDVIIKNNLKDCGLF

Row | Structure (SMILES) | Ki
1 | O=C(CC1CCCC1)NC1CCN(CC(=O)N2CCN(C3CCC3)CC2)CC1 [Compound 1208, N-{1-[2-(4-cyclobutylpiperazin-1-yl)-2-oxoethyl]piperidin-4-yl}-2-cyclopentylacetamide] | < 1 µM
2 | O=C(CC1CCCCC1)NC1CCN(CC(=O)N2CCN(C3CCC3)CC2)CC1 [Compound 1209, N-{1-[2-(4-cyclobutylpiperazin-1-yl)-2-oxoethyl]piperidin-4-yl}-2-cyclohexylacetamide] | < 1 µM
3 | CCCC(C)C(=O)NC1CCN(CC(=O)N2CCN(C3CCC3)CC2)CC1 (centres unmarked) [Compound 1210, N-{1-[2-(4-cyclobutylpiperazin-1-yl)-2-oxoethyl]piperidin-4-yl}-2-methylpentanamide] | < 1 µM
4 | Cc1cc(C)cc(C(=O)NC2CCN(CC(=O)N3CCN(C4CCC4)CC3)CC2)c1 [Compound 1211, N-{1-[2-(4-cyclobutylpiperazin-1-yl)-2-oxoethyl]piperidin-4-yl}-3,5-dimethylbenzamide] | < 1 µM
5 | Cc1ccc(C(=O)NC2CCN(CC(=O)N3CCN(C4CCC4)CC3)CC2)cc1C [Compound 1212, N-{1-[2-(4-cyclobutylpiperazin-1-yl)-2-oxoethyl]piperidin-4-yl}-3,4-dimethylbenzamide] | < 1 µM
6 | CCOc1cccc(C(=O)NC2CCN(CC(=O)N3CCN(C4CCC4)CC3)CC2)c1 [Compound 1213, N-{1-[2-(4-cyclobutylpiperazin-1-yl)-2-oxoethyl]piperidin-4-yl}-3-ethoxybenzamide] | < 1 µM
7 | COc1ccc(C(=O)NC2CCN(CC(=O)N3CCN(C4CCC4)CC3)CC2)cc1F [Compound 1214, N-{1-[2-(4-cyclobutylpiperazin-1-yl)-2-oxoethyl]piperidin-4-yl}-3-fluoro-4-methoxybenzamide] | < 1 µM
8 | O=C(CCC1CCCC1)NC1CCN(CC(=O)N2CCN(C3CCC3)CC2)CC1 [Compound 1215, N-{1-[2-(4-cyclobutylpiperazin-1-yl)-2-oxoethyl]piperidin-4-yl}-cyclopentylpropanamide] | < 1 µM
9 | CC(C)(C)CC(=O)NC1CCN(CC(=O)N2CCN(C3CCC3)CC2)CC1 [Compound 1216, N-{1-[2-(4-cyclobutylpiperazin-1-yl)-2-oxoethyl]piperidin-4-yl}-3,3-dimethylbutanamide] | < 1 µM
10 | Cc1ccc(C(=O)NC2CCN(CC(=O)N3CCN(C4CCC4)CC3)CC2)cc1 [Compound 1217, N-{1-[2-(4-cyclobutylpiperazin-1-yl)-2-oxoethyl]piperidin-4-yl}-4-methylbenzamide] | < 1 µM
11 | CCCc1ccc(C(=O)NC2CCN(CC(=O)N3CCN(C4CCC4)CC3)CC2)cc1 [Compound 1218, N-{1-[2-(4-cyclobutylpiperazin-1-yl)-2-oxoethyl]piperidin-4-yl}-4-propylbenzamide] | < 1 µM
12 | CC(C)c1ccc(C(=O)NC2CCN(CC(=O)N3CCN(C4CCC4)CC3)CC2)cc1 [Compound 1219, N-{1-[2-(4-cyclobutylpiperazin-1-yl)-2-oxoethyl]piperidin-4-yl}-4-isopropylbenzamide] | < 1 µM
13 | CCOc1ccc(C(=O)NC2CCN(CC(=O)N3CCN(C4CCC4)CC3)CC2)cc1 [Compound 1221, N-{1-[2-(4-cyclobutylpiperazin-1-yl)-2-oxoethyl]piperidin-4-yl}-4-ethoxybenzamide] | < 1 µM
14 | CSc1ccc(C(=O)NC2CCN(CC(=O)N3CCN(C4CCC4)CC3)CC2)cc1 [Compound 1222, N-{1-[2-(4-cyclobutylpiperazin-1-yl)-2-oxoethyl]piperidin-4-yl}-4-(methylthio)benzamide] | < 1 µM
15 | CCSc1ccc(C(=O)NC2CCN(CC(=O)N3CCN(C4CCC4)CC3)CC2)cc1 [Compound 1223, N-{1-[2-(4-cyclobutylpiperazin-1-yl)-2-oxoethyl]piperidin-4-yl}-4-(ethylthio)benzamide] | < 1 µM
16 | O=C(NC1CCN(CC(=O)N2CCN(C3CCC3)CC2)CC1)c1ccc(Oc2ccccc2)cc1 [Compound 1224, N-{1-[2-(4-cyclobutylpiperazin-1-yl)-2-oxoethyl]piperidin-4-yl}-4-phenoxybenzamide] | < 1 µM
17 | O=C(NC1CCN(CC(=O)N2CCN(C3CCC3)CC2)CC1)c1ccccc1 [Compound 1225, N-{1-[2-(4-cyclobutylpiperazin-1-yl)-2-oxoethyl]piperidin-4-yl}benzamide] | < 1 µM
18 | O=C(NC1CCN(CC(=O)N2CCN(C3CCC3)CC2)CC1)C1CC2CCC1C2 (centres unmarked) [Compound 1226, N-{1-[2-(4-cyclobutylpiperazin-1-yl)-2-oxoethyl]piperidin-4-yl}bicyclo[2.2.1]heptane-2-carboxamide] | < 1 µM
19 | O=C(NC1CCN(CC(=O)N2CCN(C3CCC3)CC2)CC1)C1CCCCC1 [Compound 1227, N-{1-[2-(4-cyclobutylpiperazin-1-yl)-2-oxoethyl]piperidin-4-yl} cyclohexanecarboxamide] | < 1 µM
20 | O=C(NC1CCN(CC(=O)N2CCN(C3CCC3)CC2)CC1)C1CCCCCC1 [Compound 1228, N-{1-[2-(4-cyclobutylpiperazin-1-yl)-2-oxoethyl]piperidin-4-yl} cycloheptanecarboxamide] | < 1 µM
21 | Cc1cc(C)cc(C(=O)NC2CCN(CC(=O)N3CCN(C4CCC4)CC3)C2)c1 (centres unmarked) [Compound 1229, N-{1-[2-(4-cyclobutylpiperazin-1-yl)-2-oxoethyl]pyrrolidin-3-yl}-3,5-dimethylbenzamide] | < 1 µM
22 | Cc1cccc(C(=O)NC2CCN(CC(=O)N3CCN(C4CCC4)CC3)C2)c1 (centres unmarked) [Compound 1230, N-{1-[2-(4-cyclobutylpiperazin-1-yl)-2-oxoethyl]pyrrolidin-3-yl}-3-methylbenzamide] | < 1 µM
23 | Cc1ccc(C(=O)NC2CCN(CC(=O)N3CCN(C4CCC4)CC3)C2)cc1 (centres unmarked) [Compound 1231, N-{1-[2-(4-cyclobutylpiperazin-1-yl)-2-oxoethyl]pyrrolidin-3-yl}-4-methylbenzamide] | < 1 µM
24 | Cc1ccc(C(=O)NC2CCN(CC(=O)N3CCN(C4CCC4)CC3)C2)cc1C (centres unmarked) [Compound 1232, N-{1-[2-(4-cyclobutylpiperazin-1-yl)-2-oxoethyl]pyrrolidin-3-yl}-3,4-dimethylbenzamide] | < 1 µM
25 | O=C(NC1CCN(CC(=O)N2CCN(C3CCC3)CC2)C1)c1ccc2ccccc2c1 (centres unmarked) [Compound 1233, N-{1-[2-(4-cyclobutylpiperazin-1-yl)-2-oxoethyl]pyrrolidin-3-yl}-2-naphthamide] | < 1 µM
26 | CCCc1ccc(C(=O)NC2CCN(CC(=O)N3CCN(C4CCC4)CC3)C2)cc1 (centres unmarked) [Compound 1234, N-{1-[2-(4-cyclobutylpiperazin-1-yl)-2-oxoethyl]pyrrolidin-3-yl}-4-propylbenzamide] | < 1 µM
27 | CC(C)c1ccc(C(=O)NC2CCN(CC(=O)N3CCN(C4CCC4)CC3)C2)cc1 (centres unmarked) [Compound 1235, N-{1-[2-(4-cyclobutylpiperazin-1-yl)-2-oxoethyl]pyrrolidin-3-yl)-4-isopropylbenzamide] | < 1 µM
28 | COc1cccc(C(=O)NC2CCN(CC(=O)N3CCN(C4CCC4)CC3)C2)c1 (centres unmarked) [Compound 1236, N-{1-[2-(4-cyclobutylpiperazin-1-yl)-2-oxoethyl]pyrrolidin-3-yl}-3-methoxybenzamide] | < 1 µM
29 | COc1ccc(C(=O)NC2CCN(CC(=O)N3CCN(C4CCC4)CC3)C2)cc1 (centres unmarked) [Compound 1237, N-{1-[2-(4-cyclobutylpiperazin-1-yl)-2-oxoethyl]pyrrolidin-3-yl}-4-methoxybenzamide] | < 1 µM
